Measurements reported in patent US20240252488A1 (KOREA RESEARCH INSTITUTE OF CHEMICAL TECHNOLOGY, priority 2020, published 2024).
pKd: −log10 of the molar value.

Key:
FADD−/− Jurkat cells = experiment: Necroptosis inhibition assay, TNF-α-induced necroptosis (CellTiter-Glo 2.0); type: cell-based, human; conditions: TNF-α 15 ng/mL; for Necroptosis inhibition assay (Rescue %) 1 μM: compound 1 μM; for Necroptosis inhibition assay (Rescue %) 10 μM: compound 10 μM
In short: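 Cmpd 0.1/1/10 μM final, 30 min RT preincubation; TNF-α 15 ng/mL final; 20–24 h, 37° C, 5% CO2. Readout: ATP luminescence (reagent 1:3 in PBS), 0.5 s/well. Cytotoxicity and % necroptosis inhibition calculated from signal.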

MLKL = target: T1, MLKL (Homo sapiens, UniProt Q8NB16); experiment: Measurement of binding affinity with MLKL receptor (competitive binding assay, Kd); set-up: made in house; host or cells: HEK 293 cell line (T7 phage in E. coli BL21-derived host is also described)
T1 sequence (Q8NB16 1-471): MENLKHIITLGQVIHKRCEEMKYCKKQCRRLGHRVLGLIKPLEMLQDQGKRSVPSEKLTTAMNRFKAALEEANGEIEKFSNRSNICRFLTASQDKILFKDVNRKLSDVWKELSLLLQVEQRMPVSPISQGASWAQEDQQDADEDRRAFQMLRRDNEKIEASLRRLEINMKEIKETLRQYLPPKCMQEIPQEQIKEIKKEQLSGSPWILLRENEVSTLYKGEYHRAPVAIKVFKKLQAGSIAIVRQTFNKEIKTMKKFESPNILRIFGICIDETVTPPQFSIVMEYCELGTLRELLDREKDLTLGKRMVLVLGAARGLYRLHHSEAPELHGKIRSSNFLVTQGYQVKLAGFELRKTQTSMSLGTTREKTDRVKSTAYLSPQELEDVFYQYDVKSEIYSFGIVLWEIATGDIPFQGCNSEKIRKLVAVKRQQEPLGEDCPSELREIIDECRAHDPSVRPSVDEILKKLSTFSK
In short: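 Kd comes from a bead-based competition format: compound-dependent loss of DNA-tagged, HEK 293-expressed MLKL capture, measured as eluate kinase by qPCR. Final DMSO is 0.9%.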

| SMILES | Necroptosis inhibition assay (Rescue %) 1 μM (FADD−/− Jurkat cells) | pKd (MLKL) | Necroptosis inhibition assay (Rescue %) 10 μM (FADD−/− Jurkat cells) |
| --- | --- | --- | --- |
| Nc1ncc(-c2cnn(C3CCN(CCCCCCCCCCNc4ccc5c(c4)C(=O)N(C4CCC(=O)NC4=O)C5=O)CC3)c2)nc1C(=O)O[C@@H](C(=O)Nc1ccc(F)cc1)c1ccccc1 (stereo partly drawn) [TDH-160, (R)-2-((4-fluorophenyl)amino)-2-oxo-1-phenylethyl 3-amino-6-(1-(1-(10-((2-(2,6-dioxopiperidin-3-yl)-1,3-dioxoisoindolin-5-yl)amino)decyl)piperidin-4-yl)-1H-pyrazol-4-yl)pyrazine-2-carboxylate] | 3.59% | 8.03 |  |
| Nc1ncc(C2=CCN(C(=O)CCCCCNc3cccc4c3C(=O)N(C3CCC(=O)NC3=O)C4=O)CC2)cc1C(=O)O[C@@H](C(=O)Nc1ccc(F)cc1)c1ccccc1 (stereo partly drawn) [TDH-073, (R)-2-((4-fluorophenyl)amino)-2-oxo-1-phenylethyl 6-amino-1′-(6-((2-(2,6-dioxopiperidin-3-yl)-1,3-dioxoisoindolin-4-yl)amino)hexanoyl)-1′,2′,3′,6′-tetrahydro-[3,4′-bipyridine]-5-carboxylate] |  | 6.68 | 3.26% |
| Cc1ncsc1-c1ccc(CNC(=O)[C@@H]2C[C@@H](O)CN2C(=O)[C@@H](NC(=O)CCC(=O)N2CCC(CN3CCC(n4cc(-c5cnc(N)c(C(=O)O[C@@H](C(=O)Nc6ccc(F)cc6)c6ccccc6)n5)cn4)CC3)CC2)C(C)(C)C)cc1 [TDH-212, (R)-2-((4-fluorophenyl)amino)-2-oxo-1-phenylethyl 3-amino-6-(1-(1-((1-(4-(((S)-1-((2S,4R)-4-hydroxy-2-((4-(4-methylthiazol-5-yl)benzyl)carbamoyl)pyrrolidin-1-yl)-3,3-dimethyl-1-oxobutan-2-yl)amino)-4-oxobutanoyl)piperidin-4-yl)methyl)piperidin-4-yl)-1H-pyrazol-4-yl)pyrazine-2-carboxylate] | 24.34% | 7.96 | 49.14% |
| Nc1ncc(-c2cnn(C3CCN(CCOCCOCCNC(=O)C4CCN(c5ccc6c(c5)C(=O)N(C5CCC(=O)NC5=O)C6=O)CC4)CC3)c2)nc1C(=O)N[C@@H](C(=O)Nc1ccc(F)cc1)c1ccccc1 (stereo partly drawn) [TDH-214, 3-amino-6-(1-(1-(2-(2-(2-(1-(2-(2,6-dioxopiperidin-3-yl)-1,3-dioxoisoindolin-5-yl)piperidine-4-carboxamido)ethoxy)ethoxy)ethyl)piperidin-4-yl)-1H-pyrazol-4-yl)-N-((R)-2-((4-fluorophenyl)amino)-2-oxo-1-phenylethyl)pyrazine-2-carboxamide] | 26.74% | 6.74 | 48.41% |
| Nc1ncc(C2=CCN(C(=O)CCCCCNC(=O)C3CCN(c4ccc5c(c4)C(=O)N(C4CCC(=O)NC4=O)C5=O)CC3)CC2)cc1C(=O)O[C@@H](C(=O)Nc1ccc(F)cc1)c1ccccc1 (stereo partly drawn) [TDH-074, (R)-2-((4-fluorophenyl)amino)-2-oxo-1-phenylethyl 6-amino-1′-(6-(1-(2-(2,6-dioxopiperidin-3-yl)-1,3-dioxoisoindolin-5-yl)piperidine-4-carboxamido)hexanoyl)-1′,2′,3′,6′-tetrahydro-[3,4′-bipyridine]-5-carboxylate] | 14.54% | 7.13 | 3.61% |
| Nc1ncc(C2=CCN(C(=O)COCCOCCNC(=O)C3CN(c4cccc5c4C(=O)N(C4CCC(=O)NC4=O)C5=O)C3)CC2)cc1C(=O)O[C@@H](C(=O)Nc1ccc(F)cc1)c1ccccc1 (stereo partly drawn) [TDH-086, (R)-2-((4-fluorophenyl)amino)-2-oxo-1-phenylethyl 6-amino-1′-(2-(2-(2-(1-(2-(2,6-dioxopiperidin-3-yl)-1,3-dioxoisoindolin-4-yl)azetidine-3-carboxamido)ethoxy)ethoxy)acetyl)-1′,2′, 3′,6′-tetrahydro-[3,4′-bipyridine]-5-carboxylate] | 2.91% | 7.39 |  |
| Nc1ncc(-c2cnn(C3CCN(CCOCCOCCNc4ccc5c(c4)C(=O)N(C4CCC(=O)NC4=O)C5=O)CC3)c2)nc1C(=O)O[C@@H](C(=O)Nc1ccc(F)cc1)c1ccccc1 (stereo partly drawn) [TDH-122, (R)-2-((4-fluorophenyl)amino)-2-oxo-1-phenylethyl 3-amino-6-(1-(1-(2-(2-(2-((2-(2,6-dioxopiperidin-3-yl)-1,3-dioxoisoindolin-5-yl)amino)ethoxy)ethoxy)ethyl)piperidin-4-yl)-1H-pyrazol-4-yl)pyrazine-2-carboxylate] | 20.17% | 8.74 |  |
| Nc1ncc(C2=CCN(C(=O)CCCCCNC(=O)COc3cccc4c3C(=O)N(C3CCC(=O)NC3=O)C4=O)CC2)cc1C(=O)O[C@@H](C(=O)Nc1ccc(F)cc1)c1ccccc1 (stereo partly drawn) [TDH-081, (R)-2-((4-fluorophenyl)amino)-2-oxo-1-phenylethyl 6-amino-1′-(6-(2-((2-(2,6-dioxopiperidin-3-yl)-1,3-dioxoisoindolin-4-yl)oxy)acetamido)hexanoyl)-1′,2′,3′,6′-tetrahydro-[3,4′-bipyridine]-5-carboxylate] | 6.8% | 7.30 |  |
| Nc1ncc(-c2ccc(N3CCN(CC4CCN(C(=O)CNc5cccc6c5C(=O)N(C5CCC(=O)NC5=O)C6=O)CC4)CC3)nc2)nc1C(=O)OC(C(=O)Nc1ccc(F)cc1)c1ccccc1 (centres unmarked) [TDH-232, 2-((4-fluorophenyl)amino)-2-oxo-1-phenylethyl 3-amino-6-(6-(4-((1-((2-(2,6-dioxopiperidin-3-yl)-1,3-dioxoisoindolin-4-yl)glycyl)piperidin-4-yl)methyl)piperazin-1-yl)pyridin-3-yl)pyrazine-2-carboxylate] | 3.46% | 6.59 |  |
| Nc1ncc(C2=CCN(C(=O)CCCCCNC(=O)CNc3cccc4c3C(=O)N(C3CCC(=O)NC3=O)C4=O)CC2)cc1C(=O)O[C@@H](C(=O)Nc1ccc(F)cc1)c1ccccc1 (stereo partly drawn) [TDH-079, (R)-2-((4-fluorophenyl)amino)-2-oxo-1-phenylethyl 6-amino-1′-(6-(2-((2-(2,6-dioxopiperidin-3-yl)-1,3-dioxoisoindolin-4-yl)amino)acetamido)hexanoyl)-1′,2′,3′,6′-tetrahydro-[3,4′-bipyridine]-5-carboxylate] |  | 7.35 | 0.94% |
| CC(C)(C)OC(=O)N1CCC(n2cc(-c3cnc(N)c(C(=O)N[C@@H](C(=O)Nc4ccc(F)cc4)c4ccccc4)n3)cn2)CC1 [TDH-098, tert-butyl (R)-4-(4-(5-amino-6-((2-((4-fluorophenyl)amino)-2-oxo-1-phenylethyl)carbamoyl)pyrazin-2-yl)-1H-pyrazol-1-yl)piperidine-1-carboxylate] | 3.54% | 6.70 |  |
| Nc1ncc(-c2ccc(N3CCN(CC4CCN(C(=O)C5CCN(c6ccc7c(c6)C(=O)N(C6CCC(=O)NC6=O)C7=O)CC5)CC4)CC3)nc2)nc1C(=O)OC(C(=O)Nc1ccc(F)cc1)c1ccccc1 (centres unmarked) [TDH-231, 2-((4-fluorophenyl)amino)-2-oxo-1-phenylethyl 3-amino-6-(6-(4-((1-(1-(2-(2,6-dioxopiperidin-3-yl)-1,3-dioxoisoindolin-5-yl)piperidine-4-carbonyl)piperidin-4-yl)methyl)piperazin-1-yl)pyridin-3-yl)pyrazine-2-carboxylate] | 15.47% | 6.85 | 11.4% |
| Nc1ncc(-c2cnn(C3CCN(CC4CCN(c5cccc6c5C(=O)N(C5CCC(=O)NC5=O)C6=O)CC4)CC3)c2)nc1C(=O)N[C@@H](C(=O)Nc1ccc(F)cc1)c1ccccc1 (stereo partly drawn) [TDH-208, 3-amino-6-(1-(1-((1-(2-(2,6-dioxopiperidin-3-yl)-1,3-dioxoisoindolin-4-yl)piperidin-4-yl)methyl)piperidin-4-yl)-1H-pyrazol-4-yl)-N-((R)-2-((4-fluorophenyl)amino)-2-oxo-1-phenylethyl)pyrazine-2-carboxamide] |  | 6.46 | 15.28% |
| Nc1ncc(C2=CCN(C(=O)COCCOCCNC(=O)C3CCN(c4cccc5c4C(=O)N(C4CCC(=O)NC4=O)C5=O)CC3)CC2)cc1C(=O)O[C@@H](C(=O)Nc1ccc(F)cc1)c1ccccc1 (stereo partly drawn) [TDH-088, (R)-2-((4-fluorophenyl)amino)-2-oxo-1-phenylethyl 6-amino-1′-(2-(2-(2-(1-(2-(2,6-dioxopiperidin-3-yl)-1,3-dioxoisoindolin-4-yl)piperidine-4-carboxamido)ethoxy)ethoxy)acetyl)-1′,2′,3′,6′-tetrahydro-[3,4′-bipyridine]-5-carboxylate] | 4.62% | 7.48 |  |
